Here are results for four molecules from ChEMBL document CHEMBL1139270, “Design, synthesis, and biological evaluation of a scaffold for iGluR ligands based on the structure of (-)-kaitocephalin” (2009).

The source made the active and inactive calls. The rule behind the calls is not given here.

Experiment [1] relates to Oocyte. Nature of the experiment: Agonist activity at rat AMPA receptor expressed in Xenopus oocytes at 100 uM. The class given is functional, cell-based.
Experiment [2] in a line: Antagonist activity at rat KA receptor expressed in Xenopus oocytes assessed as reduction of kainate-induced membrane current at 100 uM relative to kainate. It counts as functional, Oocyte. More on the design: scale not given: the % may be the effect or the level left.
For experiment [3], the system named is Oocyte. Nature of the experiment: Agonist activity at rat KA receptor expressed in Xenopus oocytes at 100 uM. The class given is functional, cell-based.
Experiment [4] in a line: Antagonist activity at rat AMPA receptor expressed in Xenopus oocytes assessed as reduction of kainate-induced membrane current at 100 uM relative to kainate. It counts as functional, Oocyte. More on the design: scale not given: the % may be the effect or the level left.

`Cc1cccc([C@H]2CC[C@](C(=O)O)([C@@H](O)[C@@H](N)C(=O)O)N2)c1`: the outcome in the experiment on Oocyte [1] and in the experiment with Oocyte [3] was inactive. In addition, the Activity in experiment [2] and in experiment [4] was 75% throughout.
Regarding `N[C@@H](C(=O)O)[C@H](O)[C@@]1(C(=O)O)CC[C@H](c2ccccc2)N1`, the result in the experiment on Oocyte [1] and with Oocyte [3] was inactive. In addition, the Activity in experiment [2] and in experiment [4] was 72% in each case.
As to `Cc1ccc([C@H]2CC[C@](C(=O)O)([C@@H](O)[C@@H](N)C(=O)O)N2)cc1`, the result in the experiment on Oocyte [1] and in the experiment with Oocyte [3] was inactive. In addition, the Activity in experiment [2] and in experiment [4] was 83% each time.
Take `Cc1ccccc1[C@H]1CC[C@](C(=O)O)([C@@H](O)[C@@H](N)C(=O)O)N1`: the result with Oocyte [1] and with Oocyte [3] was inactive. The Activity in experiment [2] and in experiment [4] was 49% in each case.
